Results from US20250312352A1, “GLP-1R MODULATING COMPOUNDS” (Gilead Sciences, Inc., priority 2021, published 2025).
pEC50: −log10 of the molar value.

Biological target: T1, GLP-1R (Homo sapiens, UniProt P43220)
T1 construct: host or cells: CHO cells
Test: GLP-1R activation cAMP assay (Assay 1 or Assay 2)
Type: cell-based
Conditions: cAMP increase in CHO cells stably expressing GLP-1R; compounds run on one of the two cAMP assays
Method in brief: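 EC50 values come from a sigmoidal fit of HTRF-detected cAMP rise versus log agonist concentration. GLP-1R-expressing CHO cells, equilibrated 1 h at 37 °C in HBSS with HEPES and BSA, received a 10-point compound dose series for 30 min before detection.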

T1 sequence (P43220 24-463): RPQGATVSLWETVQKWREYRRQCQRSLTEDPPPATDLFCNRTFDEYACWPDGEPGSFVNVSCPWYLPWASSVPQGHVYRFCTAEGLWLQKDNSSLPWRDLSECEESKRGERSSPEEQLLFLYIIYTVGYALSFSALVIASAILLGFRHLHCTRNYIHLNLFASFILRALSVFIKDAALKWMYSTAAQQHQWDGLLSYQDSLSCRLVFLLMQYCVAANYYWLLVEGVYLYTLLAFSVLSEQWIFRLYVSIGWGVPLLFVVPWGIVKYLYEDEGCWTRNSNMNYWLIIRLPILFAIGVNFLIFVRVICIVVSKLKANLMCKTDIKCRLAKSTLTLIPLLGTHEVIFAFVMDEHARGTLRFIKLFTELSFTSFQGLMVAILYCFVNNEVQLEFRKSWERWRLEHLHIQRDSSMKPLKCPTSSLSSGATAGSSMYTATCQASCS

| Structure (SMILES) | pEC50 |
| --- | --- |
| O=C(O)c1cc(F)c2nc(Cc3cc(F)c(-c4ccc(F)c(OCc5ncc(Cl)s5)n4)cc3F)n(C[C@@H]3CCO3)c2c1 [Example 311, (S)-2-(4-(6-((5-chlorothiazol-2-yl)methoxy)-5-fluoropyridin-2-yl)-2,5-difluorobenzyl)-4-fluoro-1-(oxetan-2-ylmethyl)-1H-benzo[d]imidazole-6-carboxylic acid] | 10.52 |
| NC(=O)c1ccc(COc2cccc(-c3ccc(Cc4nc5ccc(C(=O)O)cc5n4C[C@@H]4CCO4)cc3F)n2)cn1 [Example 173, (S)-2-(4-(6-((6-carbamoylpyridin-3-yl)methoxy)pyridin-2-yl)-3-fluorobenzyl)-1-(oxetan-2-ylmethyl)-1H-benzo[d]imidazole-6-carboxylic acid] | 7.63 |
| O=C(O)c1ccc2nc(Cc3cc(F)c(-c4cccc(OCc5ncc(C#Cc6ccc(F)cc6)cc5F)n4)cc3F)n(C[C@@H]3CCO3)c2c1 [Example 284, (S)-2-(2,5-difluoro-4-(6-((3-fluoro-5-((4-fluorophenyl)ethynyl)pyridin-2-yl)methoxy)pyridin-2-yl)benzyl)-1-(oxetan-2-ylmethyl)-1H-benzo[d]imidazole-6-carboxylic acid] | 9.74 |
| Cn1cncc1C#Cc1ccc(COc2cccc(-c3cc(F)c(Cc4nc5ccc(C(=O)O)cc5n4C[C@@H]4CCO4)cc3F)n2)c(F)c1 [Example 142, (S)-2-(2,5-difluoro-4-(6-((2-fluoro-4-((1-methyl-1H-imidazol-5-yl)ethynyl)benzyl)oxy)pyridin-2-yl)benzyl)-1-(oxetan-2-ylmethyl)-1H-benzo[d]imidazole-6-carboxylic acid] | 9.60 |
| COc1nnc(COc2nc(-c3cc(F)c(Cc4nc5ccc(C(=O)O)cc5n4CC4(CF)CC4)cc3F)ccc2F)s1 [Example 268, 2-(2,5-difluoro-4-(5-fluoro-6-((5-methoxy-1,3,4-thiadiazol-2-yl)methoxy)pyridin-2-yl)benzyl)-1-((1-(fluoromethyl)cyclopropyl)methyl)-1H-benzo[d]imidazole-6-carboxylic acid] | 9.12 |
| Cn1nc(COc2cccc(-c3cc(F)c(Cc4nc5ccc(C(=O)O)cc5n4C[C@@H]4CCO4)cc3F)n2)cc1C(F)F [Example 40, (S)-2-(4-(6-((5-(difluoromethyl)-1-methyl-1H-pyrazol-3-yl)methoxy)pyridin-2-yl)-2,5-difluorobenzyl)-1-(oxetan-2-ylmethyl)-1H-benzo[d]imidazole-6-carboxylic acid] | 9.08 |
| NC(=O)CNC(=O)c1ccc(COc2cccc(-c3cc(F)c(Cc4nc5ccc(C(=O)O)cc5n4C[C@@H]4CCO4)cc3F)n2)cn1 [Example 176, (S)-2-(4-(6-((6-((2-amino-2-oxoethyl)carbamoyl)pyridin-3-yl)methoxy)pyridin-2-yl)-2,5-difluorobenzyl)-1-(oxetan-2-ylmethyl)-1H-benzo[d]imidazole-6-carboxylic acid] | 8.66 |
| Cc1nc(COc2cccc(-c3cc(F)c(Cc4nc5ccc(C(=O)O)cc5n4C[C@H]4CCO4)cc3F)n2)sc1-c1cnn(C)c1 [Example 104, (R)-2-(2,5-difluoro-4-(6-((4-methyl-5-(1-methyl-1H-pyrazol-4-yl)thiazol-2-yl)methoxy)pyridin-2-yl)benzyl)-1-(oxetan-2-ylmethyl)-1H-benzo[d]imidazole-6-carboxylic acid] | 10.15 |
| NC(=O)c1cc(F)c(COc2nc(-c3cc(F)c(Cc4nc5c(F)cc(C(=O)O)cc5n4C[C@@H]4CCO4)cc3F)ccc2F)cn1 [Example 208, (S)-2-(4-(6-((6-carbamoyl-4-fluoropyridin-3-yl)methoxy)-5-fluoropyridin-2-yl)-2,5-difluorobenzyl)-4-fluoro-1-(oxetan-2-ylmethyl)-1H-benzo[d]imidazole-6-carboxylic acid] | 10.70 |
| O=C(O)c1ccc2nc(Cc3cc(F)c(-c4cccc(OCc5ncc(-c6ccns6)s5)n4)cc3F)n(C[C@@H]3CCO3)c2c1 [Example 100, (S)-2-(2,5-difluoro-4-(6-((5-(isothiazol-5-yl)thiazol-2-yl)methoxy)pyridin-2-yl)benzyl)-1-(oxetan-2-ylmethyl)-1H-benzo[d]imidazole-6-carboxylic acid] | 10.05 |
| Cn1nc(COc2cccc(-c3cc(F)c(Cc4nc5ccc(C(=O)O)cc5n4C[C@@H]4CCO4)cc3F)n2)cc1C1CC1 [Example 39, (S)-2-(4-(6-((5-cyclopropyl-1-methyl-1H-pyrazol-3-yl)methoxy)pyridin-2-yl)-2,5-difluorobenzyl)-1-(oxetan-2-ylmethyl)-1H-benzo[d]imidazole-6-carboxylic acid] | 9.07 |
| O=C(O)c1ccc2nc(Cc3cc(F)c(-c4cccc(OCc5ncc(-c6cncs6)s5)n4)cc3F)n(C[C@@H]3CCO3)c2c1 [Example 101, (S)-2-(4-(6-([5,5′-bithiazol]-2-ylmethoxy)pyridin-2-yl)-2,5-difluorobenzyl)-1-(oxetan-2-ylmethyl)-1H-benzo[d]imidazole-6-carboxylic acid] | 9.85 |
| CCOc1nnc(COc2nc(-c3cc(F)c(Cc4nc5ccc(C(=O)O)cc5n4[C@@H]4COCC4(C)C)cc3C)ccc2F)s1 [Example 262, (S)-1-(4,4-dimethyltetrahydrofuran-3-yl)-2-(4-(6-((5-ethoxy-1,3,4-thiadiazol-2-yl)methoxy)-5-fluoropyridin-2-yl)-2-fluoro-5-methylbenzyl)-1H-benzo[d]imidazole-6-carboxylic acid] | 9.87 |
| Cn1nc(COc2cccc(-c3cc(F)c(Cc4nc5ccc(C(=O)O)cc5n4C[C@@H]4CCO4)cc3F)n2)cc1-c1cnn(C(F)F)c1 [Example 110, (S)-2-(4-(6-((1′-(difluoromethyl)-2-methyl-1′H,2H-[3,4′-bipyrazol]-5-yl)methoxy)pyridin-2-yl)-2,5-difluorobenzyl)-1-(oxetan-2-ylmethyl)-1H-benzo[d]imidazole-6-carboxylic acid] | 9.02 |
| Cn1cncc1C#Cc1cnc(COc2cccc(-c3cc(F)c(Cc4nc5ccc(C(=O)O)cc5n4C[C@@H]4CCO4)cc3F)n2)cn1 [Example 156, (S)-2-(2,5-difluoro-4-(6-((5-((1-methyl-1H-imidazol-5-yl)ethynyl)pyrazin-2-yl)methoxy)pyridin-2-yl)benzyl)-1-(oxetan-2-ylmethyl)-1H-benzo[d]imidazole-6-carboxylic acid] | 8.92 |
| COc1cc(COc2cccc(-c3cc(F)c(Cc4nc5ccc(C(=O)O)cc5n4C[C@@H]4CCO4)cc3F)n2)nn1C [Example 68, (S)-2-(2,5-difluoro-4-(6-((5-methoxy-1-methyl-1H-pyrazol-3-yl)methoxy)pyridin-2-yl)benzyl)-1-(oxetan-2-ylmethyl)-1H-benzo[d]imidazole-6-carboxylic acid] | 8.27 |

Continued, values first:

| pEC50 | Structure (SMILES) |
| --- | --- |
| 10.06 | CCOc1nnc(COc2nc(-c3cc(Cl)c(Cc4nc5c(F)cc(C(=O)O)cc5n4[C@@H]4COCC4(C)C)cc3C)ccc2F)s1 [Example 421, (S)-2-(2-chloro-4-(6-((5-ethoxy-1,3,4-thiadiazol-2-yl)methoxy)-5-fluoropyridin-2-yl)-5-methylbenzyl)-1-(4,4-dimethyltetrahydrofuran-3-yl)-4-fluoro-1H-benzo[d]imidazole-6-carboxylic acid] |
| 9.25 | Cn1ccc(CNC(=O)c2cc(Cl)c(COc3cccc(-c4cc(F)c(Cc5nc6ccc(C(=O)O)cc6n5C[C@@H]5CCO5)cc4F)n3)cn2)n1 [Example 366, (S)-2-(4-(6-((4-chloro-6-(((1-methyl-1H-pyrazol-3-yl)methyl)carbamoyl)pyridin-3-yl)methoxy)pyridin-2-yl)-2,5-difluorobenzyl)-1-(oxetan-2-ylmethyl)-1H-benzo[d]imidazole-6-carboxylic acid] |
| 9.41 | O=C(O)c1ccc2nc(Cc3cc(F)c(-c4ccc(F)c(OCc5ncc(C(F)F)s5)n4)cc3F)n(C[C@@H]3CCO3)c2c1 [Example 406, (S)-2-(4-(6-((5-(difluoromethyl)thiazol-2-yl)methoxy)-5-fluoropyridin-2-yl)-2,5-difluorobenzyl)-1-(oxetan-2-ylmethyl)-1H-benzo[d]imidazole-6-carboxylic acid] |
| 9.38 | CC1(C)COC[C@H]1n1c(Cc2cc(F)c(-c3cccc(OCc4nnc(C(F)(F)F)s4)n3)cc2F)nc2ccc(C(=O)O)cc21 [Example 433, (S)-2-(2,5-difluoro-4-(6-((5-(trifluoromethyl)-1,3,4-thiadiazol-2-yl)methoxy)pyridin-2-yl)benzyl)-1-(4,4-dimethyltetrahydrofuran-3-yl)-1H-benzo[d]imidazole-6-carboxylic acid] |
| 9.34 | CC1(COc2nnc(COc3cccc(-c4cc(F)c(Cc5nc6ccc(C(=O)O)cc6n5C[C@@H]5CCO5)cc4F)n3)s2)CC1 [Example 343, (S)-2-(2,5-difluoro-4-(6-((5-((1-methylcyclopropyl)methoxy)-1,3,4-thiadiazol-2-yl)methoxy)pyridin-2-yl)benzyl)-1-(oxetan-2-ylmethyl)-1H-benzo[d]imidazole-6-carboxylic acid] |
| 10.02 | O=C(O)c1ccc2nc(Cc3cc(F)c(-c4cccc(OCc5ccc(C#Cc6cnc(Cl)nc6)cc5)n4)cc3F)n(C[C@@H]3CCO3)c2c1 [Example 403, (S)-2-(4-(6-((4-((2-chloropyrimidin-5-yl)ethynyl)benzyl)oxy)pyridin-2-yl)-2,5-difluorobenzyl)-1-(oxetan-2-ylmethyl)-1H-benzo[d]imidazole-6-carboxylic acid] |
| 9.42 | O=C(O)c1cc(F)c2nc(Cc3cc(F)c(-c4ccnc(OCc5ncc(C(F)(F)F)s5)n4)cc3F)n(C[C@@H]3CCO3)c2c1 [Example 408, (S)-2-(2,5-difluoro-4-(2-((5-(trifluoromethyl)thiazol-2-yl)methoxy)pyrimidin-4-yl)benzyl)-4-fluoro-1-(oxetan-2-ylmethyl)-1H-benzo[d]imidazole-6-carboxylic acid] |
| 9.71 | CC1(C)COC[C@H]1n1c(Cc2cc(F)c(-c3cccc(OCc4nnc(C5CC5)s4)n3)cc2F)nc2ccc(C(=O)O)cc21 [Example 431, (S)-2-(4-(6-((5-cyclopropyl-1,3,4-thiadiazol-2-yl)methoxy)pyridin-2-yl)-2,5-difluorobenzyl)-1-(4,4-dimethyltetrahydrofuran-3-yl)-1H-benzo[d]imidazole-6-carboxylic acid] |
